Laboratory results from ChEMBL document CHEMBL1201862, “PubChem BioAssay data set” (2004).
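Step 1: Grow cells in 96-well plates. Step 2: Expose to compound for 48 hours at 5 concentrations. Step 3: Interpolate endpoints linearly; if unreached, use highest concentration. GI50 = concentration required for 50% inhibition of growth.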 Activity calls are given as the source filed them. Rule as the data show it: active = GI50 up to about 1.1 µM and inactive = higher.

Assays:
Assay in all cases: DTP human tumour cell line panel, 48 h
[1] = tested on: LOX IMVI
[2] = tested on: SNB-78
[3] = tested on: NCI-H23
[4] = tested on: HCC 2998
[5] = tested on: SN12C
[6] = tested on: SK-MEL-28
[7] = tested on: DMS-273
[8] = tested on: NCI-H226
[9] = tested on: K562
[10] = tested on: HOP-62
[11] = tested on: SF-539
[12] = tested on: MCF7
[13] = tested on: HCT-116
[14] = tested on: OVCAR-5
[15] = tested on: SK-MEL-2
[16] = tested on: MOLT-4
[17] = tested on: SW-620
[18] = tested on: SF-268
[19] = tested on: DLD-1
[20] = tested on: HOP-92
[21] = tested on: EKVX
[22] = tested on: OVCAR-4
[23] = tested on: SF-295
[24] = tested on: M19-MEL
[25] = tested on: A498
[26] = tested on: NCI-H522
[27] = tested on: SNB-19
[28] = tested on: HOP-18
[29] = tested on: DMS-114
[30] = tested on: UACC-257
[31] = tested on: OVCAR-3
[32] = tested on: OVCAR-8
[33] = tested on: COLO 205
[34] = tested on: UACC-62
[35] = tested on: SK-MEL-5
[36] = tested on: U-251
[37] = tested on: NCI-H460
[38] = tested on: KM-20L2
[39] = tested on: HCT-15
[40] = tested on: CAKI-1
[41] = tested on: SNB-75
[42] = tested on: NCI/ADR-RES
[43] = tested on: XF498
[44] = tested on: CCRF-CEM
[45] = tested on: RPMI-8226
[46] = tested on: HL-60
[47] = tested on: IGROV-1
[48] = tested on: SK-OV-3
[49] = tested on: KM12
[50] = tested on: A549
[51] = tested on: Malme-3M
[52] = tested on: UO-31
[53] = tested on: HT-29
[54] = tested on: RXF 393
[55] = tested on: 786-0
[56] = tested on: ACHN
[57] = tested on: TK-10
[58] = tested on: LXFL 529
[59] = tested on: M14
[60] = tested on: PC-3
[61] = tested on: DU-145
[62] = tested on: BT-549

Measured: GI50

COC(=O)c1ccc(/N=N/N(C)COc2ccc(Br)cc2)cc1
inactive: [1] 49.2 µM | [2] > 100 µM | [3] > 68.5 µM | [4] 31.7 µM | [5] 68.5 µM | [6] > 100 µM | [7] > 89.9 µM | [8] > 100 µM | [9] 38.1 µM | [10] > 100 µM | [11] > 100 µM | [12] > 58.3 µM | [13] > 100 µM | [14] > 83.8 µM | [15] > 100 µM | [16] 26.6 µM | [17] > 90.2 µM | [18] > 75.5 µM | [19] > 54.6 µM | [20] > 53 µM | [21] > 75.2 µM | [22] 54.2 µM | [23] > 60.8 µM | [24] > 100 µM | [25] 37.7 µM | [26] 43.5 µM | [27] > 100 µM | [28] > 100 µM | [29] 55.7 µM | [30] > 71.8 µM | [31] > 100 µM | [32] > 81.5 µM | [33] > 100 µM | [34] 60 µM | [35] 55.3 µM | [36] > 71.3 µM | [37] 40.6 µM | [38] > 81.1 µM | [40] > 57.7 µM | [41] 57.3 µM | [42] > 100 µM | [43] > 100 µM | [44] 34 µM | [45] 24.5 µM | [46] 20.2 µM | [47] > 100 µM | [48] > 100 µM | [49] 75.5 µM | [50] 66.7 µM | [51] > 100 µM | [52] > 100 µM | [53] 49.3 µM | [54] 80.4 µM
> 89.7 µM: [39]

O=C(c1ccc(Cl)cc1)C1OC12C(=O)Nc1c(Cl)cc(Cl)cc12 (stereo unspecified)
inactive: [1] 39.4 µM | [3] 30.1 µM | [4] > 100 µM | [5] 54 µM | [6] 94 µM | [7] 65.5 µM | [8] 28.3 µM | [9] 22.3 µM | [10] > 100 µM | [11] 75 µM | [14] > 100 µM | [15] 67.5 µM | [55] 49 µM | [17] 40 µM | [18] 51.9 µM | [19] 87.3 µM | [56] 92.9 µM | [21] 19.8 µM | [23] 46.3 µM | [57] 51.2 µM | [25] > 100 µM | [27] 54.3 µM | [28] 36.2 µM | [30] 26.9 µM | [31] 21.2 µM | [32] 23 µM | [35] 37.5 µM | [36] 76.7 µM | [37] 50.8 µM | [38] 67.5 µM | [41] 25.9 µM | [43] 15.3 µM | [44] 22.4 µM | [45] 14.9 µM | [49] 48.6 µM | [50] 49.9 µM | [51] 71.9 µM | [52] 63.7 µM | [53] 41.2 µM
42.1 µM: [39]

O=C1c2ccccc2CCCCCCCCCCC12OCCCO2
25.8 µM: [39]
inactive: [1] 29.2 µM | [2] 22.6 µM | [3] 40.3 µM | [4] 25.4 µM | [5] 55 µM | [6] 55.8 µM | [7] 70.5 µM | [8] 35.6 µM | [9] 68.4 µM | [10] 49.9 µM | [11] 58.1 µM | [13] 16 µM | [14] 26.7 µM | [15] 24.3 µM | [16] 17.7 µM | [55] 67.1 µM | [18] 11.8 µM | [19] 60.4 µM | [58] 58.9 µM | [56] 52.4 µM | [22] 57.1 µM | [23] 34.7 µM | [57] > 100 µM | [24] 36.6 µM | [25] 32.1 µM | [26] 24.5 µM | [27] 29.5 µM | [28] 47.9 µM | [29] 12.2 µM | [30] 24 µM | [59] 51.3 µM | [31] 32.5 µM | [32] 87.3 µM | [33] 19.2 µM | [34] 82.2 µM | [35] 35.6 µM | [36] 24.4 µM | [37] 26.4 µM | [38] 22.9 µM | [40] 25.5 µM | [41] 25.6 µM | [44] 25.3 µM | [45] 15.5 µM | [46] 16 µM | [47] 41.4 µM | [48] 80.5 µM | [49] 27.6 µM | [50] 28.8 µM | [51] 30.9 µM | [52] 79.3 µM | [53] 15.1 µM | [54] 10.6 µM

CC1=NN(C(=O)c2ccc(Cl)cc2)C(=O)/C1=C/c1ccc(O)cc1
inactive: [1] > 100 µM | [3] > 100 µM | [4] > 100 µM | [5] > 100 µM | [6] > 100 µM | [8] > 100 µM | [9] > 100 µM | [10] > 100 µM | [11] > 100 µM | [13] > 100 µM | [14] > 100 µM | [15] > 100 µM | [16] > 100 µM | [55] > 100 µM | [17] > 100 µM | [18] > 100 µM | [19] > 100 µM | [58] > 100 µM | [56] > 100 µM | [20] > 100 µM | [21] > 100 µM | [22] > 100 µM | [23] > 100 µM | [57] > 100 µM | [24] > 100 µM | [25] > 100 µM | [26] > 100 µM | [27] > 100 µM | [29] > 100 µM | [30] > 100 µM | [59] > 100 µM | [31] > 100 µM | [32] > 100 µM | [33] > 100 µM | [34] > 100 µM | [35] > 100 µM | [36] > 100 µM | [37] > 100 µM | [38] > 100 µM | [40] > 100 µM | [43] > 100 µM | [44] > 100 µM | [45] > 100 µM | [46] > 100 µM | [47] > 100 µM | [48] > 100 µM | [49] > 100 µM | [50] > 100 µM | [51] > 100 µM | [52] > 100 µM | [53] > 100 µM | [54] > 100 µM
> 100 µM: [39]

CCc1ccc(NCc2cc(OC)c(OC)c(OC)c2)cc1
inactive: [8] 4.65 µM | [14] 4.9 µM | [56] 3.51 µM | [21] 4.95 µM | [22] 26.7 µM | [30] 17.2 µM | [43] 1.69 µM
0.0847 µM: [39]
active: [3] 0.532 µM | [60] 0.186 µM | [9] 0.0728 µM | [10] 0.366 µM | [13] 0.122 µM | [16] 0.159 µM | [61] 0.399 µM | [19] 0.592 µM | [20] 1.09 µM | [23] 0.109 µM | [24] 0.579 µM | [26] 0.109 µM | [27] 0.902 µM | [29] 0.586 µM | [31] 0.123 µM | [38] 0.388 µM | [42] < 0.0416 µM | [44] 0.158 µM | [45] 0.303 µM | [46] 0.0603 µM | [49] 0.0537 µM | [51] 0.256 µM | [62] < 0.01 µM | [53] 0.105 µM | [54] 0.224 µM

CC(C)Cc1ccc(C(C)C(=O)N2CCN(/C=C/c3ccccc3)CC2)cc1 (stereo unspecified)
inactive: [1] 18.7 µM | [2] 25.1 µM | [3] 13.2 µM | [4] 17.9 µM | [5] 15.8 µM | [6] 17.7 µM | [7] 11.4 µM | [8] 12.6 µM | [9] 5.58 µM | [10] 15.8 µM | [11] 15.2 µM | [12] 16 µM | [13] 13.4 µM | [14] 13.9 µM | [15] 13.6 µM | [16] 6.15 µM | [17] 15.6 µM | [18] 16.3 µM | [19] 13.7 µM | [20] 13.1 µM | [21] 15.8 µM | [22] 11.9 µM | [23] 15.9 µM | [24] 15.7 µM | [25] 16.4 µM | [26] 11.6 µM | [27] 2.79 µM | [28] 21.5 µM | [29] 10.8 µM | [30] 17.3 µM | [31] 12.9 µM | [32] 14.5 µM | [33] 15.4 µM | [34] 13.4 µM | [35] 12.1 µM | [36] 12.9 µM | [37] 16.1 µM | [38] 15.5 µM | [41] 14 µM | [42] 13.1 µM | [43] 13.8 µM | [44] 13 µM | [45] 5.04 µM | [46] 3.94 µM | [47] 15.1 µM | [48] 16.6 µM | [49] 15.5 µM | [50] 11.5 µM | [51] 16.3 µM | [52] 10.5 µM | [53] 14.7 µM | [54] 14.1 µM
13.8 µM: [39]
